Target: T1, VEGFR-2 (Homo sapiens, UniProt P35968)
T1 construct: gene KDR
Assay: SPR with VEGFR-2 immobilized on sensor chip, compound […]
Format: binding

T1 sequence (P35968 20-1356): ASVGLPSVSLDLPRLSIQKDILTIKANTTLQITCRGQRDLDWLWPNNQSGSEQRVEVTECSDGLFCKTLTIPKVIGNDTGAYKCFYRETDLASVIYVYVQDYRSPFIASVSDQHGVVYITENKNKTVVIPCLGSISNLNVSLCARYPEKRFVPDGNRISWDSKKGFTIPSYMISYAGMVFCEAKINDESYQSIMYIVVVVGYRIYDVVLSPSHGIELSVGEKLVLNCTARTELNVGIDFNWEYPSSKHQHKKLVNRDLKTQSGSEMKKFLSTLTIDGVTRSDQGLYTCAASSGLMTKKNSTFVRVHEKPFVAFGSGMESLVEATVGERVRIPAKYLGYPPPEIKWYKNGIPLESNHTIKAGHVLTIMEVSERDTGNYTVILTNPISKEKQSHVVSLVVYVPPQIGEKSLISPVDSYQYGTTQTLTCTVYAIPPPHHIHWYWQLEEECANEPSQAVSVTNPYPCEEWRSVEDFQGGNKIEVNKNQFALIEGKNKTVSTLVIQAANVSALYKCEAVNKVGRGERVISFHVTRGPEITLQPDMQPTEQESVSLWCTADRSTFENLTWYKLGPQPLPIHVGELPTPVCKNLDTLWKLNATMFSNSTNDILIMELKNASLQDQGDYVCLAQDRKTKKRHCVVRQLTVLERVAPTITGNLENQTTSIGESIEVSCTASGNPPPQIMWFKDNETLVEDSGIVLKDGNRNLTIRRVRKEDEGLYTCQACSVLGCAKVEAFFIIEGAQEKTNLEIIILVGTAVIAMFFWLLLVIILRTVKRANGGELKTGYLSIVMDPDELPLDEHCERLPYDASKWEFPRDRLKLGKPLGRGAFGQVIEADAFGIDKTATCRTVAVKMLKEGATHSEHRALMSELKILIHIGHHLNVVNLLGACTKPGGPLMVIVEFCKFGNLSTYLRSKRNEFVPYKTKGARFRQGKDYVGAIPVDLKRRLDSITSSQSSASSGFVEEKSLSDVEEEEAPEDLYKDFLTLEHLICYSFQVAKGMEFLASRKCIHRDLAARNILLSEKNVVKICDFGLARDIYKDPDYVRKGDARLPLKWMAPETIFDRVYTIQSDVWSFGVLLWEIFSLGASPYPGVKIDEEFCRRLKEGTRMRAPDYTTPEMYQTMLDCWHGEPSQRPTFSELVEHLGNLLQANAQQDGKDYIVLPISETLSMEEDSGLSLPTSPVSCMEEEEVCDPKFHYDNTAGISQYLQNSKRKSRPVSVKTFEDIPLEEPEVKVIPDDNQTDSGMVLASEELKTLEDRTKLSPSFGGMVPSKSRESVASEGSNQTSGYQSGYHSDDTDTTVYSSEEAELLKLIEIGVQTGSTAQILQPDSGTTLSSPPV

CC1=C(C)C2=CC(=O)c3c(c(O)c4occ(C)c4c3O)C2(C)CC1 (stereo not shown) [ajuforrestin A] was tested, and the Kd was 45 µM.

Source: paper PMC12383317, “Ajuforrestin A Inhibits Tumor Proliferation and Migration by Targeting the STAT3/FAK Signaling Pathways and VEGFR-2” (Biology, 2025)
